Laboratory results published in patent publication US8404677B2, “Kinase inhibitors” (Genosco, priority 2009, dated 2013).

How the values were obtained:
[1] = tested on: K-562; assay: cells; format: cell-based; settings: K-562 (Leukemia)
[2] = target: T1, human PIM1 (Homo sapiens, UniProt P11309); assay: Inhibition of enzymatic kinase activity (LANCE Ulight); format: biochemical; settings: at 1 μM concentration; read-out: PIM1 percentage inhibition
T1 construct: Purified full-length human SYK, ZAP70, PIM1, PYK2; purchased Carna Biosciences
Experimental: Inhibition of Enzymatic SYK, ZAP70, PYK2, FAK, PIM1, RET, FLT3, JAK2 and LRRK2 Kinase Activity
Compounds of the invention were initially diluted to 10 mM in 100% DMSO (CALBIOCHEM™) for storage and made into kinase buffer solution to create a compound concentration ranging from 1 uM and 10 uM. Serial dilutions of compounds of the invention were dispensed into a 96-well plate (GREINER BIOSCIENCES™) at 6 μL each. Purified full-length human SYK, ZAP70, PIM1, PYK2 and truncated human FAK, RET, FLT3, JAK2, and LRRK2 (CARNA BIOSCIENCES™) were diluted in kinase buffer and added to the compound solutions and pre-incubated for 30 minutes at room temperature (1 hour for PYK2). […] The reaction mixture was incubated for 1 hour (2 hours for PYK2). Following the incubation, the stop solution made with EDTA, water, and Lance detection buffer ([…]™) was added (12 μL each) to stop phosphorylation. […] Substrate phosphorylation was a function of the 665 nm emission measured following the addition of the detection solution and 50 minutes of incubation.

[3] = tested on: MDA-MB-435; assay: cells; format: cell-based; settings: MDA-MB-435 (Melanoma)
[4] = tested on: NCI-H460; assay: cells; format: cell-based; settings: NCI-H460 (NSCLC)
[5] = tested on: NCI-H522; assay: cells; format: cell-based; settings: NCI-H522 (NSCLC)
[6] = tested on: BT-549; assay: cells; format: cell-based; settings: BT-549 (Breast Cancer)
[7] = tested on: MDA-MB-231/ATCC; assay: cells; format: cell-based; settings: MDA-MB-231/ATCC (Breast Cancer)
[8] = tested on: A498; assay: cells; format: cell-based; settings: A498 (Renal Cancer)
[9] = tested on: NCI-H23; assay: cells; format: cell-based; settings: NCI-H23 (NSCLC)
[10] = tested on: SW-620; assay: cells; format: cell-based; settings: SW-620 (Colon Cancer)
[11] = tested on: M14; assay: cells; format: cell-based; settings: M14 (Melanoma)
[12] = tested on: ACHN; assay: cells; format: cell-based; settings: ACHN (Renal Cancer)
[13] = tested on: RXF 393; assay: cells; format: cell-based; settings: RXF 393 (Renal Cancer)
[14] = Homo sapiens, read-out: LC50 (the source's name)

T1 sequence (P11309 whole entry): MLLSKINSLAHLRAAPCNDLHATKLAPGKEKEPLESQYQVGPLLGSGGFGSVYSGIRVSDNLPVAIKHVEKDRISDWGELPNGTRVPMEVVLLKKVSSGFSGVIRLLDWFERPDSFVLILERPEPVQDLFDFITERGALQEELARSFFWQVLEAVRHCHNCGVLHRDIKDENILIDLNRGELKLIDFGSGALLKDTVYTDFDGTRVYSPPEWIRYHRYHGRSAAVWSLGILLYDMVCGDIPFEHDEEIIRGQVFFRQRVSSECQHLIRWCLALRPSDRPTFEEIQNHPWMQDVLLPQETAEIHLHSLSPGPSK

## O=c1[nH]ccc2nc(N3CCC(O)CC3)nc(Nc3cccc(C(F)(F)F)c3)c12 [Compound 6, 2-(4-hydroxypiperidin-1-yl)-4-(3-(trifluoromethyl)phenylamino)pyrido[4,3-d]pyrimidine-5(6H)-one]
[1]; Homo sapiens, K562
  GI50: 3.16 µM
  IC50: 3.98 µM
[1]; Homo sapiens, K562, read-out: LC50 (the source's name)
  CC50: 100 µM
[1]
  TGI: 100 µM
[2]
  inhibition at 1 µM: 32%
[3]; Homo sapiens
  GI50: 1.29 µM
  IC50: 2.57 µM
[3]; [14]
  CC50: 9.77 µM
[3]
  TGI: 3.55 µM
[4]; Homo sapiens
  GI50: 1.62 µM
  IC50: 2.4 µM
[4]; [14]
  CC50: 64.6 µM
[4]
  TGI: 15.1 µM
[5]; Homo sapiens
  GI50: 2.34 µM
  IC50: 7.59 µM
[5]; [14]
  CC50: 34.7 µM
[5]
  TGI: 10 µM
[6]
  TGI: 4.37 µM
[6]; Homo sapiens
  GI50: 1.58 µM
  IC50: 4.57 µM
[6]; [14]
  CC50: 14.1 µM
[7]; Homo sapiens
  GI50: 12.3 µM
  IC50: ≥ 100 µM
[7]; [14]
  CC50: 100 µM
[7]
  TGI: 100 µM
[8]
  TGI: 100 µM
[8]; Homo sapiens
  GI50: 2.51 µM
  IC50: ≥ 100 µM
[8]; [14]
  CC50: 100 µM
[9]; Homo sapiens
  GI50: 3.24 µM
  IC50: 6.92 µM
[9]; [14]
  CC50: 50.1 µM
[9]
  TGI: 13.8 µM
[10]; Homo sapiens
  GI50: 1.91 µM
  IC50: 2.82 µM
[10]; [14]
  CC50: 74.1 µM
[10]
  TGI: 12.9 µM
[11]; Homo sapiens
  GI50: 1.55 µM
  IC50: 3.31 µM
[11]; [14]
  CC50: 32.4 µM
[11]
  TGI: 8.32 µM
[12]
  TGI: 85.1 µM
[12]; Homo sapiens
  GI50: 0.708 µM
  IC50: 2.24 µM
[12]; [14]
  CC50: 100 µM
[13]; Homo sapiens
  GI50: 1.45 µM
  IC50: 21.4 µM
[13]; [14]
  CC50: 100 µM
[13]
  TGI: 23.4 µM
